Experimental data published in patent publication US8198317B2, “Methylenedioxy phenolic compounds and their use to treat disease” (The Ohio State University Research Foundation, priority 2008, dated 2012).

Legend:
[1] = tested on: Patient; test: Treatment of a patient with chronic stable angina (Example 20); type: in vivo, human; conditions: oral, 1.0 to 100 mg/kg, two weeks
Description: A person with a prior history of a heart attack (myocardial infarction) 10 years ago presents for evaluation. They are complaining of anginal chest pains that are relived with one sub-lingual nitroglycerin and has had these pains chronically. The patient is administered a composition comprising an effective amount of oral 3,4-Methylenedioxy 6-nitro phenyl lipoate (INV-7465) (1.0 to 100 mg/kg). Alternate therapies include, 3,4-methylenedioxy phenyl acetate (INV 73); 3,4-methylenedioxy-6-nitrophenol (INV 74); 3,4-methylenedioxy-6-nitrophenyl acetate (INV 75); or 3,4-Methylenedioxy phenyl lipoate (INV-7065). Patient notes added benefit in their chest pains with this regimen after taking the medication for two weeks.

[2] = tested on: SREBP-1; test: SREBP-1 regulation in HepG2 cells; type: cell-based, human; conditions: data not shown
From the text: Next we investigated the effect of INV-75 in regulating LDL receptor expression in the same cells using a similar protocol to assess dose and temporal dependence. FIGS. 5E and 5F depict the time course of LDL receptor expression and dose dependence in response to INV-75. […] INV-75 had no effects on SREBP-1 regulation (data not shown). Simultaneously multiple genes involved in cholesterol synthesis and regulation, apolipoprotein gene expression and expression of PCSK9 (Proprotein convertase subtilisin/kexin type 9) was tested. The latter gene is known to regulate LDL receptor expression by binding to the epidermal growth factor-like repeat A (EGF-A) domain of the low-density lipoprotein receptor (LDLR), inducing LDLR degradation. Inhibition of PSCK9 function is currently being explored as a means of lowering cholesterol levels.

[3] = tested on: Patients; test: Treatment of dyslipidemia in diabetic patients (Example 25); type: in vivo, human; conditions: oral, 12 months
From the text: Individuals with Type I and Type II diabetes are at risk for future cardiovascular events such as heart attacks, strokes and kidney disease. These individuals often have abnormalities in lipids such as elevations in triglycerides and VLDL cholesterol. They are on treatments such as hypolipidemic drug therapy such as statins and fibrates (Gemfibrozil or Fenofibrate) to lover cholesterol levels in conjunction with glycemia lowering strategies such as Insulin, PPAR γ agents, Metformin or sulfonylurea therapy. In addition to these treatments they will also receive an acceptable dose of a composition comprising a compound of the present invention in an acceptable carrier orally chronically for durations in excess of 12 months. In one study, (3,4-methylenedioxy phenyl acetate (INV 73); 3,4-methylenedioxy-6-nitrophenol (INV 74); 3,4-methylenedioxy-6-nitrophenyl acetate (INV 75); are administered to these individuals. The patients undergo lipid measurements at baseline and at the end of treatment for a 12 month duration. At the end of 12 months of treatment, there is lowering of VLDL cholesterol and a decrease in triglycerides.

[4] = tested on: Watanabe Heritable Hyperlipidemic Rabbits (WHHL); test: 8-Isoprostane enzyme linked immunoassay in WHHL rabbits; type: in vivo, rabbit; conditions: vs control groups
Description: […] […] Both samples underwent affinity purification (Cayman Chemical, Ann Arbor, Mich.) and then measurement of 8-isoprostane with the Stat-8-Isoprostane ELISA kit (Cayman Chemical, Ann Arbor, Mich.). […] The protein levels in liver lysates were determined by BCA Protein Assay (Pierce, Rockford, Ill.).

[5] = tested on: Watanabe Heritable Hyperlipidemic Rabbits (WHHL); test: Immunohistochemistry and staining of WHHL rabbit aorta; type: in vivo
Description: Immunohistochemical staining was performed to assess inflammatory content using the primary antibodies (1:200 concentration) and a detection system (Immunoperoxidase Secondary Detection System; Chemicon International, Temecula, Calif.), and quantified with software (NIH Image) after digitization of the images with a camera system (Zeiss Axioskop with Spot I digital camera). Antibodies against CD68 were purchased from Santa Cruz Biotechnology Incorporated (Santa Cruz, Calif.). A polyclonal anti-α-Actin antibody was obtained from Upstate Cell Signaling Solutions (Lake Placid, N.Y.). T cell receptor β antibody was obtained from Biolegend (San Diego, Calif.). To quantify the staining, the mean density of 4 negative control (no primary antibody) sections was set as the threshold, and positive area was acquired by software. Results were finally normalized by the area subtended by the external elastic lamina to the luminal interface or the intimal-medial volume. The effects of INV-75 on macrophages and smooth muscle cells in comparison to control group were evaluated by CD68 and α-actin immunohistochemistry, respectively. INV-75 decreased the number of macrophages vs. controls and summary of whole groups is represented by bar diagram in FIG. 10 (n=4-5 animals/group). *p<0.05 vs control animals using unpaired t test). […] INV-75 increased the smooth muscle content (% of total area) vs controls and the combined results were represented as a bar diagram n=5/group (n=number of animals used per group). *p<0.05 vs control animals.
Lipid deposition in aorta was identified after total 14 weeks of treatment with drug, rabbits were sacrificed and abdominal aortas were fixed in 4% paraformaldehyde. The lipid deposition in aortic wall was then visualized by oil red staining. […] (FIG. 13).

[6] = target: T1, PPARδ (Homo sapiens, UniProt Q03181); test: GAL4-PPARδ-LBD luciferase assay in HepG2 cells; type: cell-based; conditions: 1 μM to 1000 μM
T1 construct: GAL4-PPARδ-LBD plasmid+UAS-Luciferase; expressed in transfected cells; host or cells: HepG2
T1 sequence (Q03181 211-439 limits assumed, species assumed): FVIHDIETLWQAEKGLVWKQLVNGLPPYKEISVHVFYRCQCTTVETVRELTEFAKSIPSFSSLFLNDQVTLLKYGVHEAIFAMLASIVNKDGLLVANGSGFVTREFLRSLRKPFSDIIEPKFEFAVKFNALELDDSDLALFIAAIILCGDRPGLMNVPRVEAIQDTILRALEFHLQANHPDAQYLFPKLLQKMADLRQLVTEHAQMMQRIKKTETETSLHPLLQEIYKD
From the text: We used a reporter gene assay in HepG2 cells to screen for agonists of the peroxisome proliferator-activated receptors. Peroxisome proliferator-activated receptors (PPARs) and other members of the nuclear hormone receptor family are important drug targets for the treatment of metabolic diseases. PPARs play crucial roles in lipid and glucose metabolism, respectively. Therefore, screening methods that help to rapidly identify activators of these receptors should be of considerable value. INV-75 activated a classic PPARα gene, Acetyl-CoA Oxidase (ACO) in a dose dependent and time dependent fashion (FIG. 6A). The time course experiment was performed in presence of INV-75 up to 15 hours. […] We next tested the specificity of INV-75 for PPARα by performing experiments in HepG2 cells transfected with yeast GAL4-PPARα-LBD plasmid+UAS-Luciferase; GAL4-PPARδ-LBD plasmid+UAS-Luciferase and […]. The PPARα, PPARδ and PPARγ binding assays were performed using multiple concentrations of INV-75 (1 μM, 10 μM, 100 μM and 1000 μM). The level of luciferase activity corresponded to the degree of PPAR activation. The results were compared with classic PPAR agonists such as WY-14643 (PPARα agonist), Bezafibrate (PPARδ agonist) and Rosiglitazone ([…]).

effects on PPARδ [6] | Structure (SMILES) | chest pains [1] | SREBP-1 regulation [2] | VLDL cholesterol [3] | triglycerides [3] | 8-Isoprostane production in aortic homogenates [4] | 8-Isoprostane production in plasma [4] | collagen content (Masson's trichrome) ([5]; WHHL abdominal aorta, vs control group) | lipid component (Oil Red O) ([5]; WHHL abdominal aorta, vs controls) | number of macrophages (CD68) ([5]; WHHL aorta, vs controls) | smooth muscle content (% of total area, α-actin) ([5]; WHHL aorta, vs controls)
 | O=C(CCCCC1CCSS1)Oc1cc2c(cc1[N+](=O)[O-])OCO2 (centres unmarked) [INV-7465, 3,4-Methylenedioxy 6-nitro phenyl lipoate] | added benefit |  |  |  |  |  |  |  |  | 
without effects | CC(=O)Oc1cc2c(cc1[N+](=O)[O-])OCO2 [INV-75, 3,4-methylenedioxy-6-nitrophenyl acetate] |  | no effects | lowering | decrease | significantly lower | significantly lower | reduction | decreased | decreased | increased
